Laboratory results reported in patent US7662857B2, “Diagnostic agents for pancreatic exocrine function” (Tokyo Gas Company Limited, priority 2001, dated 2010).

Legend:
[1] = system: pancreatic exocrine function; experiment: 13C-dipeptide breath test in normal rats (Δ13C in exhaled CO2 after oral administration); assay type: in vivo, rat; details: for Δ^13C(‰) peak value / Peak time: Table 1, overnight-fasted Wistar rats, oral 35 μmol/kg (5 ml/kg); for Δ^13C(‰) peak value: exhaled CO2; for Peak time: peak in time course of Δ13C(‰) up to 20 min; for Δ^13C(‰) value at 10 min after the administration / Δ^13C(‰) value at 15 min after the administration / Δ^13C(‰) value at 5 min after the administration / Δ^13C(‰) value at 20 min after the administration: normal rats, mean±SD; for Δ^13C(‰) value at 10 min after the administration / Δ^13C(‰) value at 15 min after the administration / Δ^13C(‰) peak value compared with the peak value of Bz-Ala-(^13C-Ala)-ONa / Δ^13C(‰) value at 5 min after the administration / Δ^13C(‰) value at 20 min after the administration: oral 35 μmol/kg; for Δ^13C(‰) peak value compared with the peak value of Bz-Ala-(^13C-Ala)-ONa: rats, comparison in words
Description: (§1) Overnight-fasted rats (male, Wistar, 8-week old) in the awake state were individually fixed in a rat holder of a microwave irradiation apparatus. The breath was collected at a rate of about 100 to 300 ml/min using a stroke pump (Variable Stroke Pump VS-500; Shibata Kagaku Kogyo), and the CO2 concentration therein was maintained at about 3%. A Perma Pure drier (MD-050-12P; Perma Pure INC.) was set between the rat holder and the stroke pump to remove water vapor from the breath. When the CO2 concentration was stabilized, the rat was temporarily released from the rat holder. A ^13C-labeled dipeptide or a sodium salt thereof each dissolved in distilled water was administered to the stomach of the rat using an oral probe [dose: 35 μmol/kg (5 ml/kg)]. The breath was sampled with a syringe every 5 min until up to 20 min. A 15 ml sample was transferred from the syringe into a vacuum vial (10 ml), sealed and subjected to automated analysis by GC-MS (Breath MAT) [FinniganMAT]. Δ^13C(‰) was calculated from δ^13C values which are ^13C values of a sample (i.e. differences from the standard substance PDB) using the following formula. Δ^13C(‰)=(δ^13C)tmin−((δ^13C)0 min <Breath MAT Measuring Conditions>
Apparatus: Breath MAT plus (Finningan)
Using Ac-Met-(^13C-Ala)-ONa, Z-Met-(^13C-Ala)-ONa, Boc-Met-(^13C-Ala)-ONa or Boc-Phe-(^13C-Ala)-ONa [dose: 35 μmol/kg (5 ml/kg)], ^13C-breath tests were carried out in the same manner as in Example 12. The resultant Δ^13C(‰) peak values were compared with the Δ^13C(‰) peak value in the Bz-Ala-(^13C-Ala)-ONa breath test.
(§2) As in Example 12, Bz-Phe-(^13C-Ala)-ONa [dose: 12.6 mg/kg (35 μmol/kg)], Bz-Gln-(^13C-Ala)-ONa [dose: 12.0 mg/kg (35 μmol/kg)], Bz-Val-(^13C-Ala)-ONa [dose: 11.0 mg/kg (35 μmol/kg)], Bz-Tyr-(^13C-Ala)-ONa [dose: 13.2 mg/kg (35 μmol/kg)], Bz-Met-(^13C-Ala)-ONa [dose: 12.1 mg/kg (35 μmol/kg)], Bz-Ser-(^13C-Ala)-ONa [dose: 10.6 mg/kg (35 μmol/kg)], Bz-Thr-(^13C-Ala)-ONa [dose: 11.0 mg/kg (35 μmol/kg)] or Boc-Phe-(^13C-Ala)-ONa [dose: 8.84 mg/kg (24.6 μmol/kg)] was administered orally to normal rats and chronic pancreatitis rats. Then, the time course of the degree of increase of the ^13C concentration in exhaled CO2 (Δ^13C(‰)) was measured.

[2] = system: pancreatic exocrine function; experiment: 13C-dipeptide breath test in chronic pancreatitis rats (oleic acid injected into pancreatic duct); assay type: in vivo, rat; details: oral 35 μmol/kg, mean±SD
Description: as §1
Chronic pancreatitis rats were created according to the method of Mundlos et al., Pancreas 1:29 (1986). Oleic acid was injected into the pancreatic duct of 5-week old Wistar male rats. After breeding for 3 weeks, they were used in ^13C-dipeptide breath tests.
as §2

C[C@H](NC(=O)[C@@H](NC(=O)c1ccccc1)[C@@H](C)O)[13C](=O)[O-].[Na+] [Na salt of Bz-Thr-(^13C-Ala), N-benzoyl-L-threonyl-^13C-L-alanine]
Δ^13C(‰) peak value [1]: 47.36 ‰
Peak time [1]: 10 min
Δ^13C(‰) value at 10 min after the administration [1]: 47.36±10.99 ‰
Δ^13C(‰) value at 15 min after the administration [1]: 47.11±5.67 ‰
Δ^13C(‰) peak value compared with the peak value of Bz-Ala-(^13C-Ala)-ONa [1]: higher
Δ^13C(‰) value at 10 min after the administration [2]: 12.67±19.74 ‰
Δ^13C(‰) value at 15 min after the administration [2]: 19.78±24.70 ‰

C[C@H](NC(=O)[C@H](Cc1ccc(O)cc1)NC(=O)c1ccccc1)[13C](=O)[O-].[Na+] [Na salt of Bz-Tyr-(^13C-Ala), N-benzoyl-L-tyrosyl-^13C-L-alanine]
Δ^13C(‰) peak value [1]: 52.64 ‰
Peak time [1]: 15 min
Δ^13C(‰) value at 5 min after the administration [1]: 10.33±6.34 ‰
Δ^13C(‰) value at 10 min after the administration [1]: 33.62±4.76 ‰
Δ^13C(‰) value at 15 min after the administration [1]: 52.64±11.32 ‰
Δ^13C(‰) value at 20 min after the administration [1]: 45.61±5.27 ‰
Δ^13C(‰) peak value compared with the peak value of Bz-Ala-(^13C-Ala)-ONa [1]: higher
Δ^13C(‰) value at 5 min after the administration [2]: 4.35±3.11 ‰
Δ^13C(‰) value at 10 min after the administration [2]: 15.65±7.93 ‰
Δ^13C(‰) value at 15 min after the administration [2]: 24.68±9.48 ‰
Δ^13C(‰) value at 20 min after the administration [2]: 29.25±9.98 ‰

CC(C)[C@H](NC(=O)c1ccccc1)C(=O)N[C@@H](C)[13C](=O)[O-].[Na+] [Na salt of Bz-Val-(^13C-Ala), N-benzoyl-L-valyl-^13C-L-alanine]
Δ^13C(‰) peak value [1]: 52.89 ‰
Peak time [1]: 15 min
Δ^13C(‰) value at 5 min after the administration [1]: 13.98±6.59 ‰
Δ^13C(‰) value at 10 min after the administration [1]: 35.22±8.02 ‰
Δ^13C(‰) value at 15 min after the administration [1]: 52.89±11.18 ‰
Δ^13C(‰) value at 20 min after the administration [1]: 45.38±6.53 ‰
Δ^13C(‰) peak value compared with the peak value of Bz-Ala-(^13C-Ala)-ONa [1]: higher
Δ^13C(‰) value at 5 min after the administration [2]: 2.21±2.74 ‰
Δ^13C(‰) value at 10 min after the administration [2]: 10.62±12.40 ‰
Δ^13C(‰) value at 15 min after the administration [2]: 18.80±19.39 ‰
Δ^13C(‰) value at 20 min after the administration [2]: 23.95±19.38 ‰
